Results published in patent publication US20250312303A1, “ANTICANCER AGENT” (AGC Inc., priority 2022, published 2025).

Assays:
HeLa cells [1] = test: SRB assay, relative cell proliferation rate of HeLa cells; format: cell-based
Excerpt: (§1) HeLa cells and PANC-1 cells were used as the cancer cells. Both these cells were obtained from ATCC. Further, NHDF cells obtained from Lonza Group Ltd. were used as control non-cancer cells. The culture mediums used were Dulbecco's Modified Eagle Medium (D-MEM, manufactured by FUJIFILM Wako Pure Chemical Corporation) to which 10% FBS had been added (hereinafter also referred to as the “normal medium”), a medium prepared by removing leucine from D-MEM and adding 10% FBS (hereinafter also referred to as the “Leu-removed medium”), and a medium prepared by removing valine from D-MEM and adding 10% FBS (hereinafter also referred to as the “Val-removed medium”).
(§2) The culture cells were inoculated into a 96-well culture plate at a concentration of 3×10^3 cells/well, and following adhesion, were cultured for 24, 48 or 72 hours in the normal medium, the Leu-removed medium or Val-removed medium, or a medium prepared by adding the fluorine-containing amino acid to the Leu-removed medium or Val-removed medium in an amount sufficient to achieve a final concentration of 0.8 mM. Following culturing, the cell proliferation rate was measured by SRB assay. As a control, the cell proliferation rate was measured in a similar manner for cells having a culture time of 0 hours.
(§3) The SRB assays were conducted in the following manner. Following cell culturing, the medium was removed, and 10% (wt/vol) of trichloroacetic acid was added to fix the cells. Subsequently, the fixed cells were washed three times with tap water, and then stained by adding a solution containing 0.4% (wt/vol) of sulforhodamine B dissolved in 1% acetic acid. Following subsequent washing three times with a 1% acetic acid solution, a 10 mM Tris solution was added, and the light absorbance at 540 nm was measured. The 540 nm absorbance value for each sample was used to indicate the cell quantity, and for each sample, the relative cell proliferation rate (%) at a culture time of X hours was determined using the formula below.
(§4) SRB assays were conducted in the same manner as Example 1 with the exceptions of using a medium prepared by removing glutamine from D-MEM and adding 10% FBS (hereinafter also referred to as the “Gln-removed medium”) as the culture medium instead of the Leu-removed medium, using monofluoroglutamine ((2S,4S)Gln(1F) or (2S,4R)Gln(1F)) as the fluorine-containing amino acid, and altering the amount of monofluoroglutamine added to the Gln-removed medium to an amount sufficient to achieve a final concentration of 4 mM.
(§5) SRB assays were conducted in the same manner as Example 1 with the exceptions of using the Gln-removed medium as the culture medium instead of the Leu-removed medium, using difluoroglutamine as the fluorine-containing amino acid, and altering the amount of difluoroglutamine added to the Gln-removed medium to an amount sufficient to achieve a final concentration of 4 mM.

PANC-1 cells = test: SRB assay, relative cell proliferation rate of PANC-1 cells; format: cell-based
Excerpt: as §1, §2, §3, §4, §5

NHDF cells = test: SRB assay, relative cell proliferation rate of NHDF cells (control non-cancer cells); format: cell-based
Excerpt: as §1, §2, §3, §4

HeLa cells [2] = test: Tumor volume of subcutaneously transplanted HeLa cells in SCID/SCID mice; format: in vivo; settings: for Tumor volume: 5 mg/kg intraperitoneally every day for two weeks starting day 7; for Increase in the size of the tumor tissue compared with the control group: HeLa tumor-bearing SCID/SCID mice, 5 mg/kg intraperitoneally every day for two weeks, result in words
Protocol: First, 0.1 mL samples of an HeLa cell solution with a concentration of 1.0×10^7 cells/mL were transplanted beneath the skin of SCID/SCID (immunodeficient) mice. Starting 7 days after the HeLa cell transplantation, PBS (control group), leucine (5 mg/kg mouse bodyweight) or trifluoroleucine (5 mg/kg mouse bodyweight) was administered intraperitoneally every day for two weeks. The growth of the tumor tissue was observed over time from the time of HeLa transplantation, and the tumor volume (mm^3) was calculated. The tumor volume (mm^3) was calculated from the major diameter (mm) of the tumor tissue and the minor diameter (mm) of the tumor tissue using the formula shown below.
With the exceptions of using monofluoroisoleucine or 5-fluoro-5-methyl-norleucine (CAS RN: 1361228-49-0) instead of the trifluoroleucine, and starting the administration of the PBS, 5-fluoro-5-methyl-norleucine or monofluoroisoleucine 11 days after rather than 7 days after the HeLa cell transplantation, the same procedure as (1) above was used to measure the volume (mm^3) of the tumor formed by the subcutaneously transplanted HeLa cells over time.
(§6) First, 0.1 mL samples of an HeLa cell solution with a concentration of 1.0×10^7 cells/mL were transplanted beneath the skin of SCID/SCID (immunodeficient) mice. Starting 7 days after the HeLa cell transplantation, PBS (control group), glutamine (Gln) (5 mg/kg mouse bodyweight), (2S,4S)Gln(1F) (5 mg/kg mouse bodyweight) or (2S,4R)Gln(1F) (5 mg/kg mouse bodyweight) was administered intraperitoneally every day for two weeks. The growth of the tumor tissue was observed over time from the time of HeLa cell transplantation, and the tumor volume (mm^3) was calculated. The tumor volume (mm^3) was determined in the same manner as that described in Example 2.
as §6, with “mouse bodyweight), or di-F-Gln(F)” for “mouse bodyweight), (2S,4S)Gln(1F) (5 mg/kg mouse bodyweight) or (2S,4R)Gln(1F)”, “bodyweight), or di-F-Gln(F) (5 mg/kg” for “bodyweight) or (2S,4R)Gln(1F) (5 mg/kg”, “of HeLa transplantation, and” for “of HeLa cell transplantation, and”

[3] = Leu-removed medium + 0.8 mM amino acid, culture time 24 h
[4] = Leu-removed medium + 0.8 mM amino acid, culture time 48 h
[5] = Leu-removed medium + 0.8 mM amino acid, culture time 72 h, hydrochloride
[6] = 7 days since HeLa cell transplantation
[7] = 14 days since HeLa cell transplantation
[8] = 21 days since HeLa cell transplantation
[9] = Gln-removed medium + 4 mM amino acid, culture time 24 h
[10] = Gln-removed medium + 4 mM amino acid, culture time 48 h
[11] = Gln-removed medium + 4 mM amino acid, culture time 72 h
[12] = 9 days since HeLa cell transplantation
[13] = 11 days since HeLa cell transplantation
[14] = 16 days since HeLa cell transplantation
[15] = 18 days since HeLa cell transplantation

SMILES	Tumor volume (HeLa cells [2]; [6]) [mm^3]	Tumor volume (HeLa cells [2]; [7]) [mm^3]	Tumor volume (HeLa cells [2]; [8]) [mm^3]	Increase in the size of the tumor tissue compared with the control group (HeLa cells [2])	Relative cell proliferation rate of HeLa cells (HeLa cells [1]; [9]) [%]	Relative cell proliferation rate of HeLa cells (HeLa cells [1]; [10]) [%]	Relative cell proliferation rate of HeLa cells (HeLa cells [1]; [11]) [%]	Relative cell proliferation rate of PANC-1 cells (PANC-1 cells; [9]) [%]	Relative cell proliferation rate of PANC-1 cells (PANC-1 cells; [10]) [%]	Relative cell proliferation rate of PANC-1 cells (PANC-1 cells; [11]) [%]	Relative cell proliferation rate of NHDF cells (NHDF cells; [9]) [%]	Relative cell proliferation rate of NHDF cells (NHDF cells; [10]) [%]	Relative cell proliferation rate of NHDF cells (NHDF cells; [11]) [%]	Tumor volume (HeLa cells [2]; [12]) [mm^3]	Tumor volume (HeLa cells [2]; [13]) [mm^3]	Tumor volume (HeLa cells [2]; [14]) [mm^3]	Tumor volume (HeLa cells [2]; [15]) [mm^3]	other results
CC(CC(N)C(=O)O)C(F)(F)F.Cl (stereo not shown) [Leu(3F), 2-amino-5,5,5-trifluoro-4-methylpentanoic acid hydrochloride]	135.6	200.6	704.0	dramatically inhibited	–	–	–	–	–	–	–	–	–	–	–	–	–	Relative cell proliferation rate of HeLa cells (HeLa cells [1]; [3]): 78.5%; Relative cell proliferation rate of HeLa cells (HeLa cells [1]; [4]): 91.6%; Relative cell proliferation rate of HeLa cells (HeLa cells [1]; [5]): 89.5%; Relative cell proliferation rate of PANC-1 cells (PANC-1 cells; [3]): 77.1%; Relative cell proliferation rate of PANC-1 cells (PANC-1 cells; [4]): 87.0%; Relative cell proliferation rate of PANC-1 cells (PANC-1 cells; [5]): 75.5%; Relative cell proliferation rate of NHDF cells (NHDF cells; [3]): 138.5%; Relative cell proliferation rate of NHDF cells (NHDF cells; [4]): 138.2%; Relative cell proliferation rate of NHDF cells (NHDF cells; [5]): 185.6%; Relative cell proliferation rate of NHDF cells (NHDF cells; Leu-removed medium + 0.8 mM amino acid, culture time 72 h, listed as trifluoroleucine, hydrochloride): ~200%; Tumor volume (HeLa cells [2]; 10 days since HeLa cell transplantation): 169.4 mm^3; Tumor volume (HeLa cells [2]; 12 days since HeLa cell transplantation): 204.1 mm^3; Tumor volume (HeLa cells [2]; 17 days since HeLa cell transplantation): 315.3 mm^3; Tumor volume (HeLa cells [2]; 19 days since HeLa cell transplantation): 460.2 mm^3
NC(=O)[C@H](F)C[C@H](N)C(=O)O [(2S,4R)-Gln(1F)]	74.6	219.1	431.4	dramatically inhibited	46.8	21.5	23.1	65.0	34.7	25.7	132.5	46.5	26.3	101.6	147.2	287.0	307.7	–
NC(=O)[C@@H](F)C[C@H](N)C(=O)O [(2S,4S)-Gln(1F)]	72.1	207.1	439.9	dramatically inhibited	29.2	32.1	25.0	31.5	27.3	25.7	157.4	129.4	82.9	96.9	149.0	242.3	357.2	–
